In patent US8008354B2, “Death receptor sensitizing compounds and methods of use therefor” (Burnham Institute for Medical Research, priority 2006, dated 2011):
“Also recorded” adds a separate entry of the source. Counter-ions that a name gives are not always drawn.

Key:
FLIP = FLIP protein levels by SDS-PAGE/immunoblotting; format: cell-based, human
Procedure: (§1) FIG. 7. Effect of FAS-sensitizing compounds on levels of FLIP protein and DISC activation. (A) PPC-1 cells (2×10^5) were seeded into 35 mm plates and treated the next day with various FAS-sensitizing compounds (30 μM), with (+) or without (−) CH-11 antibody (100 ng/mL). As a positive control, cells were treated with CDDO (5 μM). Cell lysates were prepared 24 hours later, normalized for total protein content, and analyzed by SDS-PAGE/immunoblotting using antibodies specific for FLIP or a-tubulin. (B) PPC-1, OVCAR-3, T47D, MDA-MB-468 and DU 145 cells (2×10^5) were seeded into 35 mm plates and treated the next day with 5809354 (40 μM). Cell lysates were prepared 24 hours after treatment, normalized for total protein and analyzed by SDS-PAGE/immunoblotting using antibodies specific for FLIP or β-actin. (C) PPC-1, OVCAR-3, T47D, and DU 145 cells (2×10^5) were seeded into 35 mm plates and treated the next day with 5809354 (40 μM) (black bars) or buffer control (white bars). mRNA was extracted 24 hours after treatment. Levels of the long isoform of FLIP and GAPDH were detected by quantitative RT-PCR. Levels of FLIP were normalized for GAPDH expression and expressed as a mean fold change+SD over buffer treated cells. (D) PPC-1 cells (2×10^5) were seeded into 35 mm plates and treated the next day with various FAS-sensitizing compounds (30 μM) with (+) or without (−) CH-11 (100 ng/mL). Cell lysates were prepared 24 hours after treatment, normalized for total protein, and analyzed by SDS-PAGE/immunoblotting using antibodies specific for caspase-8 and β-actin.
FIG. 13. Small molecule down-regulation of FLIP sensitizes prostate cancer cells to anoikis. (A) PPC-1 cells were seeded overnight in adherent conditions and then treated with increasing concentrations of 5809354 for 16 hours. After incubation, cells were harvested. Total cellular RNA was extracted and mRNA levels of the long isoform of FLIP (FLIPL), the short isoform of FLIP (FLIPS), or rRNA levels of 18S were detected by real-time RT-PCR. Data were normalized using the ΔΔCT method and expressed as the mean±SEM percent of […] expression relative to untreated controls. (B) PPC-1 cells were cultured and treated as in panel A. Total cellular protein was isolated and analyzed by SDS-PAGE immunoblotting using anti-FLIP and anti-Actin antibodies. (C) PPC-1 cells were seeded overnight in adherent conditions and then exposed to increasing concentrations of 5809354 in the presence or absence of Fas-activating antibody (CH-11, 100 ng/mL). Thirty hours after incubation, cell viability was determined using the MTS assay. Data represents the mean±SEM of percent of viable cells. (D) PPC-1 cells were seeded overnight in adherent or suspension conditions and then treated with increasing concentrations of 5809354 for 30 hours. After incubation, apoptosis was measured by flow cytometry to detect cell surface annexin V expression and PI. Data represents the mean±SEM of percent of viable cells. (E) Cells were harvested, fixed, stained with DAPI, and nuclear morphology analyzed by fluorescence microscopy. Arrowheads refer to fragmented nuclei indicative of apoptosis. […] Thirty hours after incubation, cells were harvested and equal volumes plated in a colony formation assay. One week later, cells were stained with methylene blue and the number of colonies counted. Data represents the mean ±SEM percent of colonies relative to untreated controls.
Immunoblot analysis. Protein extracts were obtained by washing cells with phosphate-buffered saline (PBS) [pH 7.4] and suspending the cells in lysis buffer [10 mM Tris (pH 7.4), 150 mM NaCl, 0.1% Triton X-100, 0.5% sodium deoxycholate, and 5 mM EDTA] containing protease inhibitors (Complete tablets; Roche, Indianapolis, Ind.). Immunoblot assays were performed as described in Carter et al. (2005). […]

PPC-1 cells = test: MTT cell viability of PPC-1 cells treated with compound with or without CH-11 anti-FAS antibody; format: cell-based; details: for LD50 (μM) (PPCl, CH-11): PPC-1 cells with CH-11 100 ng/mL, MTT 24 hours, LD50 = concentration that reduces cell viability by 50%; for IC50: Homo sapiens, PPC-1, 24 h, compound alone without CH-11, MTT 24 hours, read-out: LD50 (μM) PPCl
Procedure: FIGS. 2A-C. […] PPC-1 cells (1×10^4) were seeded in 96 well plates. The next day, cells were treated with increasing concentrations of the sensitizing compounds with (open squares) and without (closed squares) CH-11 antibody (100 ng/mL). Cell viability was measured 24 hours later by MTT assay. Cell viability is expressed as a mean percentage of untreated cells+SD (n=3). The Chembridge identification numbers of the compounds are provided.
High throughput screening. […] PPC-1 cells (1×10^4) were seeded overnight into 96 well, flat-bottom plates (Costar, Cambridge, Mass.) in 100 μL of medium containing 2.5% FCS. […] CH-11 antibody (100 ng/mL) was then added, and the cells were incubated for 24 hours before assessing cell viability by a 3-(4,5-Dimethylthiazol-2-yl)-2,5-diphenyltetrazolium Bromide (MTT) dye reduction assay (Sigma).
Cell death assays. […] Absorbance readings were plotted against a standard curve to derive the corresponding cell number, and cell viability was expressed as a percentage relative to untreated cells.

FLIP mRNA = FLIP mRNA by quantitative RT-PCR; format: cell-based, human; details: for expression of FLIP mRNA: Example 1, responding and non-responding cell lines, 24 hours, long isoform normalized for GAPDH
Procedure: as §1
FIG. 13. Small molecule down-regulation of FLIP sensitizes prostate cancer cells to anoikis. (A) PPC-1 cells were seeded overnight in adherent conditions and then treated with increasing concentrations of 5809354 for 16 hours. After incubation, cells were harvested. Total cellular RNA was extracted and mRNA levels of the long isoform of FLIP (FLIPL), the short isoform of FLIP (FLIPS), or rRNA levels of 18S were detected by real-time RT-PCR. Data were normalized using the ΔΔCT method and expressed as the mean±SEM percent of […] expression relative to untreated controls. (B) PPC-1 cells were cultured and treated as in panel A. Total cellular protein was isolated and analyzed by SDS-PAGE immunoblotting using anti-FLIP and anti-Actin antibodies. […] Thirty hours after incubation, cell viability was determined using the MTS assay. […] After incubation, apoptosis was measured by flow cytometry to detect cell surface annexin V expression and PI. […] (E) Cells were harvested, fixed, stained with DAPI, and nuclear morphology analyzed by fluorescence microscopy. […] One week later, cells were stained with methylene blue and the number of colonies counted. […]
Quantitative RT-PCR. […]

[1] = Example 2, PPC-1 cells, increasing concentrations, 16 hours
[2] = PPC-1 cells, 30 μM, with or without CH-11, 24 hours, long isoform

Compound: 4-(4-chloro-2-methylphenoxy)-N-hydroxybutanamide [compound 5809354]
- FLIP protein expression (FLIP; [1]): concentration-dependent decrease
- levels of FLIP protein (FLIP; [2]): decreased levels of FLIP protein
- levels of FLIP protein (FLIP; non-responding cell lines DU145 and MDA-MB-468, 40 μM, 24 hours): levels of FLIP were decreased
- LD50 (μM) (PPCl, CH-11) (PPC-1 cells): 20+2 μM
- expression of FLIP mRNA (FLIP mRNA): reduced expression of FLIP mRNA
- FLIP mRNA expression (FLIP mRNA; [1]): concentration-dependent decrease

Compound: CCn1c(=N)n(CC(=O)c2cc(C(C)(C)C)c(O)c(C(C)(C)C)c2)c2ccccc21 [compound 5569100, 1-(3,5-di-tert-butyl-4-hydroxyphenyl)-2-(3-ethyl-2-imino-2,3-dihydro-1H-benzo[d]imidazol-1-yl)ethanone hydrobromide]
- levels of FLIP protein (FLIP; PPC-1 cells, 30 μM, with or without CH-11, 24 hours, long isoform, hydrobromide): decreased levels of FLIP protein; also recorded: reduced FLIP expression
- IC50 (PPC-1 cells; PPC-1 cells): 15 µM
- toxicity when added alone relative to 5541203 (PPC-1 cells; PPC1 cells, without anti-FAS antibody): 3 times
- LD50 (μM) (PPCl, CH-11) (PPC-1 cells): 5.6 µM
- combination Index (CI) (PPC-1 cells; combined with CH-11, median-dose combination index (Chou, 1991), synergy): did not demonstrate synergy
- expression of FLIP mRNA (FLIP mRNA): did not reduce FLIP mRNA

Compound: CC(=O)CC(=O)Nc1ccc(Cl)c(C(F)(F)F)c1 [compound 6094911, N-[4-chloro-3-(trifluoromethyl)phenyl]-3-oxobutanamide]
- levels of FLIP protein (FLIP; [2]): did not alter levels of FLIP protein
- IC50 (PPC-1 cells; PPC-1 cells): > 100 µM
- LD50 (μM) (PPCl, CH-11) (PPC-1 cells): 35+4 μM
- LD50 (μM) (PPCl, CH-11) (PPC-1 cells; listed as N-[4-chloro-3-(trifluoromethyl)phenyl]-3-oxobutanamide): 35 ± 4 µM
- direct toxicity (PPC-1 cells; PPC-1 cells, compound alone, concentrations up to 80 μM): little direct toxicity
- expression of FLIP mRNA (FLIP mRNA): did not reduce FLIP mRNA
